Measured values reported in paper PMC6482291, “Anticonvulsant Activity of Pterostilbene in Zebrafish and Mouse Acute Seizure Tests” (Neurochemical Research, 2019).
Where two headings read alike, the source gives them in different places.

How the values were obtained:
zebrafish larvae = assay: Toxicological assessment (maximum tolerated concentration) in zebrafish larvae; format: in vivo, Danio rerio; details: 4 dpf larvae, scored after 2 and 18 h of exposure; highest concentration without death or signs of toxicity
Procedure: Maximum tolerated concentration (MTC) was evaluated prior to further experiments. Briefly, 4 dpf zebrafish larvae (n = 12/group) were incubated with a range of PTE doses at 28.5 °C, for 18 h. The following parameters were scored after 2 and 18 h of exposure: touch response, posture, edema, morphology, signs of necrosis, swim bladder and heartbeat.

[1] = tested on: PTZ-induced seizure-like behavior in zebrafish larvae; assay: Larval zebrafish PTZ seizure assay, locomotor activity tracking; format: in vivo, Danio rerio; details: 10 µM PTE, 2 h incubation, 20 mM PTZ; vs vehicle + PTZ
Procedure: The locomotor activity of larvae was assessed as previously described. A single 117 hpf zebrafish larvae was placed in a 48-well plate (one larva per well) filled with 200 µl of vehicle or PTE solution (10 µM). Subsequently, larvae were incubated for 2 h, at 28.5 °C. Next, 100 µl of vehicle or PTZ was added to each well. Within 5 min, plates were positioned in an automated tracking device (ZebraBox, Viewpoint, Lyon, France) and larvae were tracked for 30 min, with a 5 min integration interval. All measurements were performed at the same daytime period. The […] distance (in millimeters) covered by each larva was recorded. Three independent experiments were done (n = 12/group) and the data were pooled together. […] The data were normalized against PTZ values.

[2] = Determination of PTE in mouse serum and brain tissue and pharmacokinetic analysis; format: in vivo; details: mice, 50 mg/kg ip; for Kp: brain/serum, ip, 50 mg/kg; for concentration at 15 min / concentration at 30 min / concentration at 60 min / concentration at 120 min / concentration at 240 min: mean ± SEM; for MRT: read-out: MRT (mean residence time); for half-life: read-out: t0.5 λz (terminal half-life) (converted); for Tmax: read-out: time of peak concentration following dosing (converted); for k el: read-out: λz (terminal elimination rate constant) (converted)
Procedure: In order to isolate PTE from biological samples, brains were homogenized in distilled water (1:4, w/v) with a tissue homogenizer TH220 (Omni International, Inc., Warrenton, VA, USA). Aliquots of 0.2–0.3 ml of serum or 0.5–1 ml of brain homogenate were spiked with 10 µl of internal standard (IS) solution containing clonazepam at concentration of 10 µg/ml and vortexed (Reax top, Heidolph, Germany) for 10 s. Both serum samples and brain homogenates were extracted with 3 ml of a mixture of ethyl acetate:hexane (30:70, v/v) for 20 min on a shaker (VXR Vibrax, IKA, Germany). After centrifugation (Universal 32, Hettich, Germany) at 3000 rpm for 15 min, the organic layers ware transferred to new tubes and evaporated to dryness at 37 °C under a gentle stream of nitrogen. The residues were dissolved in 100 µl of methanol and aliquots of 10–50 µl of the solution were injected into the HPLC system. The analysis was performed on a 250 × 4.6 mm LiChrospher®100 RP-18 column with a particle size of 5 µm (Merck, Darmstadt, Germany) protected with a guard column (4 × 4 mm) with the same packing material. The mobile phase was composed of deionized water and acetonitrile mixed at a ratio of 50:50 (v/v) and pumped at a flow rate of 1 ml/min. The column temperature was maintained at 21 °C. The HPLC system (Merck-Hitachi, Darmstadt, Germany) consisted of an L-7100 isocratic pump, an L-7200 autosampler, and a UV variable-wavelength K-2600 detector (Knauer, Berlin, Germany) operating at 321 nm. D-7000 HSM software was used for data acquisition and processing. In these conditions, the retention times of IS and PTE were approximately 5.3 and 12.8 min. The calibration curve constructed by plotting the ratio of the peak area of PTE to IS vs PTE concentrations was linear in the tested concentration ranges. The limit of quantification of the analytical method was 5 ng/ml (or ng/g tissue). […] The extraction efficiencies of PTE and IS were higher than 90%.
Serum and total brain concentrations of PTE were determined in groups consisted of 8 animals. Pharmacokinetic parameters were calculated using non-compartmental analysis in Phoenix WinNonlin v. 7.0 (Pharsight Corporation, a Certara Company, Princeton, NJ, USA).

[3] = tested on: 6 Hz-induced psychomotor seizures in mice; assay: 6 Hz psychomotor seizure threshold test; format: in vivo; details: 30 min before test, 95% confidence limits in brackets
Text: Psychomotor (limbic) seizures were induced by transcorneal stimulation (6 Hz, 0.2 ms rectangular pulse, 3 s duration) generated by a Grass S48 stimulator coupled with a constant current unit CCU1 (both from Grass Technologies, West Warwick, RI, USA). Before stimulation a drop of ocular anesthetic, 1% tetracaine hydrochloride solution, was applied into the animals’ corneas. The electrodes were soaked in saline to ensure the good electrical contact. During the stimulation animals were restrained manually and immediately after the stimulation were placed in a Plexiglas box for observation of presence or absence of the psychomotor seizures. These seizures were characterized by immobilization or stun, often associated with rearing, forelimb clonus, twitching of vibrissae and elevated tail (Straub-tail), lasting at least 10 s from the stimulation. Lack of the above symptoms or their cessation within 10 s from the stimulation was considered as absence of seizure activity.
In the present study two 6 Hz-induced psychomotor seizure tests were performed: (1) the 6 Hz psychomotor seizure threshold test which employed stimulation at varied current intensities, and (2) the 6 Hz psychomotor seizure test with supramaximal stimulation at 32 mA and 44 mA.
In the 6 Hz psychomotor seizures threshold test, threshold current intensity (CS50 in mA) was estimated in groups of 20 animals according to the above mentioned up-and-down method.

[4] = tested on: GABA-induced chloride currents; design: method as in PMID 24462176; details: cited from earlier work
[5] = mouse, brain, read-out: Concentration of PTE in brain tissue
[6] = mouse, serum, read-out: Concentration of PTE in serum

COc1cc(/C=C/c2ccc(O)cc2)cc(OC)c1 [PTE, trans-3,5-dimethoxy-4′-hydroxy-trans-stilbene]
Maximum tolerated concentration (MTC) (zebrafish larvae): 10 µM | PTZ-induced locomotor activity in zebrafish larvae [1]: significantly reduced | AUC0–24 ([2]; brain): 11.64 µg·h/g | Kp ([2]; mouse, read-out: brain-to-serum AUC ratio): 5.15 | Kp ([2]; mouse, read-out: brain-to-serum Cmax ratio): 6 | concentration at 15 min [2, 5]: 13100 ± 1820 ng/g | concentration at 30 min [2, 5]: 9920 ± 1100 ng/g | concentration at 60 min [2, 5]: 3500 ± 440 ng/g | concentration at 120 min [2, 5]: 820 ± 140 ng/g | concentration at 240 min [2, 5]: 180 ± 60 ng/g | concentration at 15 min [2, 6]: 1760 ± 230 ng/mL | concentration at 30 min [2, 6]: 1080 ± 160 ng/mL | concentration at 60 min [2, 6]: 550 ± 70 ng/mL | concentration at 120 min [2, 6]: 210 ± 30 ng/mL | concentration at 240 min [2, 6]: 100 ± 60 ng/mL | Cmax ([2]; mouse, brain): 13100 ng/g | MRT ([2]; mouse, brain): 1.09 h | half-life ([2]; mouse, brain): 1.82 h | Tmax ([2]; mouse, brain): 0.25 h | k el ([2]; mouse, brain): 0.000106 s⁻¹ | Cmax ([2]; mouse, serum): 2190 ng/mL | AUC(0-t) ([2]; mouse, serum, read-out: AUC0–24): 2260 ng·h/mL | MRT ([2]; mouse, serum): 2.62 h | half-life ([2]; mouse, serum): 2.64 h | Tmax ([2]; mouse, serum): 0.25 h | k el ([2]; mouse, serum): 7.22e-05 s⁻¹ | CS50 (psychomotor seizure threshold) ([3]; PTE 100 mg/kg ip, p < 0.01): 15.56 (14.18–17.08) mA | CS50 (psychomotor seizure threshold) ([3]; PTE 200 mg/kg ip, p < 0.001): 19.28 (17.15–21.66) mA | effect on GABA-induced chloride currents [4]: enhances
